Results: patent US20170190671A1, “BIS(ARYL)CATECHOL DERIVATIVES AS HERBICIDES” (E I DU PONT DE NEMOURS AND COMPANY, priority 2014, published 2017)

Tests used:
Assay type in all cases: in vivo
Conditions in all cases: scale 0 to 100
[1] = system: morningglory (Ipomoea coccinea); experiment: Test E preemergence
In short: (§1)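 Test chemicals, formulated in a non-phytotoxic solvent with surfactant, are applied to silt loam soil after sowing or sprayed over young plants (1–4 leaves) in potting medium. Plants are then kept in a greenhouse for 14 to 21 days and scored 0–100 for control.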

corn (Zea mays) [2] = experiment: Test E preemergence
In short: as §1

[3] = system: dayflower (Virginia (VA) dayflower, Commelina virginica); experiment: Test E preemergence
In short: as §1

[4] = system: field bindweed (Convolvulus arvensis); experiment: Test E preemergence
In short: as §1

[5] = system: barnyardgrass (Echinochloa crus-galli); experiment: Test E postemergence
From the text: (§2) Seeds of plant species selected from corn (Zea mays), soybean (Glycine max), velvetleaf (Abutilon theophrasti), cocklebur (common cocklebur, Xanthium strumarium), lambsquarters (Chenopodium album), wild poinsettia (Euphorbia heterophylla), palmer pigweed (Amaranthus palmeri), waterhemp (common waterhemp, Amaranthus rudis), surinam grass (Brachiaria decumbens), large (Lg) crabgrass (Digitaria sanguinalis), Brazilian crabgrass (Digitaria horizontalis), fall panicum (Panicum dichotomiflorum), giant foxtail (Setaria faberii), green foxtail (Setaria viridis), goosegrass (Eleusine indica), johnsongrass (Sorghum halepense), ragweed (common ragweed, Ambrosia elatior), barnyardgrass (Echinochloa crus-galli), sandbur (southern sandbur, Cenchrus echinatus), arrowleaf sida (Sida rhombifolia), Italian ryegrass (Lolium multiflorum), dayflower (Virginia (VA) dayflower, Commelina virginica), field bindweed (Convolvulus arvensis), morningglory (Ipomoea coccinea), nightshade (eastern black nightshade, Solanum ptycanthum), kochia (Kochia scoparia), yellow nutsedge (Cyperus esculentus), horseweed (Conyza canadensis), and hairy beggarticks (Bidens pilosa), were planted into a silt loam soil and treated preemergence with test chemicals formulated in a non-phytotoxic solvent mixture which included a surfactant.
(§3) At the same time, plants from these crop and weed species and also waterhemp_RES1, (ALS & Triazine resistant common waterhemp, Amaranthus rudis), and waterhemp_RES2, (ALS & HPPD resistant common waterhemp, Amaranthus rudis) were planted in pots containing Redi-Earth® planting medium (Scotts Company, 14111 Scottslawn Road, Marysville, Ohio 43041) comprising spaghnum peat moss, vermiculite, wetting agent and starter nutrients were treated with postemergence applications of test chemicals formulated in the same manner. Plants ranged in height from 2 to 18 cm for postemergence treatments (1- to 4-leaf stage). Treated plants and controls were maintained in a greenhouse for 14 to 21 days, after which time all species were compared to controls and visually evaluated. Plant response ratings, summarized in Table E, are based on a scale of 0 to 100 where 0 is no effect and 100 is complete control. A dash (-) response means no test result.

[6] = system: Italian ryegrass (Lolium multiflorum); experiment: Test E postemergence
From the text: as §2, §3

[7] = system: arrowleaf sida (Sida rhombifolia); experiment: Test E postemergence
From the text: as §2, §3

[8] = system: fall panicum (Panicum dichotomiflorum); experiment: Test E postemergence
From the text: as §2, §3

kochia (Kochia scoparia) = experiment: Test E postemergence
From the text: as §2, §3

soybean (Glycine max) = experiment: Test E postemergence
From the text: as §2, §3

[9] = system: horseweed (Conyza canadensis); experiment: Test E postemergence
From the text: as §2, §3

[10] = system: palmer pigweed (Amaranthus palmeri); experiment: Test E postemergence
From the text: as §2, §3

[11] = system: waterhemp_RES1 (ALS & Triazine resistant common waterhemp, Amaranthus rudis); experiment: Test E postemergence
From the text: as §2, §3

corn (Zea mays) [12] = experiment: Test E postemergence
From the text: as §2, §3

[13] = system: sandbur (southern sandbur, Cenchrus echinatus); experiment: Test E postemergence
From the text: as §2, §3

[14] = system: dayflower (Virginia (VA) dayflower, Commelina virginica); experiment: Test E postemergence
From the text: as §2, §3

[15] = system: waterhemp_RES2 (ALS & HPPD resistant common waterhemp, Amaranthus rudis); experiment: Test E postemergence
From the text: as §2, §3

[16] = system: waterhemp (common waterhemp, Amaranthus rudis); experiment: Test E postemergence
From the text: as §2, §3

[17] = system: hairy beggarticks (Bidens pilosa); experiment: Test E postemergence
From the text: as §2, §3

[18] = system: field bindweed (Convolvulus arvensis); experiment: Test E postemergence
From the text: as §2, §3

N#Cc1cccc(Oc2ncc(Cl)cn2)c1Oc1ncc(C(F)(F)F)cn1 [Compound 38, 3-[(5-chloro-2-pyrimidinyl)oxy]-2-[[5-(trifluoromethyl)-2-pyrimidinyl]oxy]-benzonitrile]
Plant response rating, Morningglory ([1]; 16 g ai/ha): 0
Plant response rating, Morningglory ([1]; 31 g ai/ha): 0
Plant response rating, Morningglory ([1]; 62 g ai/ha): 50
Plant response rating, Morningglory ([1]; 125 g ai/ha): 35
Plant response rating, Corn (corn (Zea mays) [2]; 16 g ai/ha): 0
Plant response rating, Corn (corn (Zea mays) [2]; 31 g ai/ha): 0
Plant response rating, Corn (corn (Zea mays) [2]; 62 g ai/ha): 35
Plant response rating, Corn (corn (Zea mays) [2]; 125 g ai/ha): 50
Plant response rating, Dayflower, VA ([3]; 16 g ai/ha): 0
Plant response rating, Dayflower, VA ([3]; 31 g ai/ha): 0
Plant response rating, Dayflower, VA ([3]; 62 g ai/ha): 20
Plant response rating, Dayflower, VA ([3]; 125 g ai/ha): 60
Plant response rating, Field Bindweed ([4]; 16 g ai/ha): 35
Plant response rating, Field Bindweed ([4]; 31 g ai/ha): 70
Plant response rating, Field Bindweed ([4]; 62 g ai/ha): 95
Plant response rating, Field Bindweed ([4]; 125 g ai/ha): 65
Plant response rating, Barnyardgrass ([5]; 16 g ai/ha): 0
Plant response rating, Barnyardgrass ([5]; 31 g ai/ha): 10
Plant response rating, Barnyardgrass ([5]; 62 g ai/ha): 10
Plant response rating, Barnyardgrass ([5]; 125 g ai/ha): 20
Plant response rating, Ryegrass, Italian ([6]; 16 g ai/ha): 0
Plant response rating, Ryegrass, Italian ([6]; 31 g ai/ha): 5
Plant response rating, Ryegrass, Italian ([6]; 62 g ai/ha): 10
Plant response rating, Ryegrass, Italian ([6]; 125 g ai/ha): 15
Plant response rating, Arrowleaf Sida ([7]; 16 g ai/ha): 60
Plant response rating, Arrowleaf Sida ([7]; 31 g ai/ha): 80
Plant response rating, Arrowleaf Sida ([7]; 62 g ai/ha): 90
Plant response rating, Arrowleaf Sida ([7]; 125 g ai/ha): 90
Plant response rating, Panicum, Fall ([8]; 16 g ai/ha): 10
Plant response rating, Panicum, Fall ([8]; 31 g ai/ha): 10
Plant response rating, Panicum, Fall ([8]; 62 g ai/ha): 10
Plant response rating, Kochia (kochia (Kochia scoparia); 16 g ai/ha): 80
Plant response rating, Kochia (kochia (Kochia scoparia); 31 g ai/ha): 80
Plant response rating, Kochia (kochia (Kochia scoparia); 62 g ai/ha): 100
Plant response rating, Kochia (kochia (Kochia scoparia); 125 g ai/ha): 98
Plant response rating, Soybean (soybean (Glycine max); 16 g ai/ha): 70
Plant response rating, Soybean (soybean (Glycine max); 31 g ai/ha): 80
Plant response rating, Soybean (soybean (Glycine max); 62 g ai/ha): 95
Plant response rating, Soybean (soybean (Glycine max); 125 g ai/ha): 98
Plant response rating, Horseweed ([9]; 16 g ai/ha): 5
Plant response rating, Horseweed ([9]; 31 g ai/ha): 10
Plant response rating, Horseweed ([9]; 62 g ai/ha): 20
Plant response rating, Horseweed ([9]; 125 g ai/ha): 40
Plant response rating, Pigweed, Palmer ([10]; 16 g ai/ha): 60
Plant response rating, Pigweed, Palmer ([10]; 31 g ai/ha): 75
Plant response rating, Pigweed, Palmer ([10]; 62 g ai/ha): 60
Plant response rating, Pigweed, Palmer ([10]; 125 g ai/ha): 90
Plant response rating, Waterhemp_RES1 ([11]; 16 g ai/ha): 80
Plant response rating, Waterhemp_RES1 ([11]; 31 g ai/ha): 90
Plant response rating, Waterhemp_RES1 ([11]; 62 g ai/ha): 90
Plant response rating, Waterhemp_RES1 ([11]; 125 g ai/ha): 95
Plant response rating, Corn (corn (Zea mays) [12]; 16 g ai/ha): 0
Plant response rating, Corn (corn (Zea mays) [12]; 31 g ai/ha): 0
Plant response rating, Corn (corn (Zea mays) [12]; 62 g ai/ha): 15
Plant response rating, Corn (corn (Zea mays) [12]; 125 g ai/ha): 20
Plant response rating, Sandbur ([13]; 16 g ai/ha): 0
Plant response rating, Sandbur ([13]; 31 g ai/ha): 0
Plant response rating, Sandbur ([13]; 62 g ai/ha): 10
Plant response rating, Sandbur ([13]; 125 g ai/ha): 20
Plant response rating, Dayflower, VA ([14]; 16 g ai/ha): 40
Plant response rating, Dayflower, VA ([14]; 31 g ai/ha): 50
Plant response rating, Dayflower, VA ([14]; 62 g ai/ha): 60
Plant response rating, Dayflower, VA ([14]; 125 g ai/ha): 60
Plant response rating, Waterhemp_RES2 ([15]; 16 g ai/ha): 75
Plant response rating, Waterhemp_RES2 ([15]; 31 g ai/ha): 85
Plant response rating, Waterhemp_RES2 ([15]; 62 g ai/ha): 90
Plant response rating, Waterhemp_RES2 ([15]; 125 g ai/ha): 95
Plant response rating, Waterhemp ([16]; 16 g ai/ha): 85
Plant response rating, Waterhemp ([16]; 31 g ai/ha): 90
Plant response rating, Waterhemp ([16]; 62 g ai/ha): 95
Plant response rating, Waterhemp ([16]; 125 g ai/ha): 95
Plant response rating, Beggarticks ([17]; 16 g ai/ha): 35
Plant response rating, Beggarticks ([17]; 31 g ai/ha): 40
Plant response rating, Beggarticks ([17]; 62 g ai/ha): 40
Plant response rating, Beggarticks ([17]; 125 g ai/ha): 50
Plant response rating, Field Bindweed ([18]; 16 g ai/ha): 60
Plant response rating, Field Bindweed ([18]; 31 g ai/ha): 65
Plant response rating, Field Bindweed ([18]; 62 g ai/ha): 80
Plant response rating, Field Bindweed ([18]; 125 g ai/ha): 85
